Data as given in patent US20230017045A1, “PYRIDINE AND PYRIMIDINE CARBOXYLATE HERBICIDES AND METHODS OF USE THEREOF” (Dow AgroSciences LLC, priority 2017, published 2023).
Like-named read-outs stand apart in the source and are kept apart here.

Test system: test plant species
Assay: Post-emergent herbicidal activity test (greenhouse, foliar spray, visual growth reduction)
Type: in vivo
Conditions: post-emergence, 336 h, 140 g ai/ha
Outline: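 Greenhouse plants at first–second true leaf stage sprayed overhead at 187 L/ha with compound in acetone/water/isopropanol/DMSO/crop oil/X-77 carrier; controls received solvent blank. Injury rated visually after 14 d on a 0–100% scale versus untreated and control plants, converted to growth reduction.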

[1] = ALOMY: blackgrass (Alopecurus myosuroides), 14 days after application, read-out: Visual Growth Reduction (%) 14 Days After Application, ALOMY
[2] = AMARE: redroot pigweed (Amaranthus retroflexus), 14 days after application, read-out: Visual Growth Reduction (%) 14 Days After Application, AMARE
[3] = AVEFA: wild oat (Avena fatua), 14 days after application, read-out: Visual Growth Reduction (%) 14 Days After Application, AVEFA
[4] = CHEAL: lambsquarters (Chenopodium album), 14 days after application, read-out: Visual Growth Reduction (%) 14 Days After Application, CHEAL
[5] = CIRAR: canada thistle (Cirsium arvense), 14 days after application, read-out: Visual Growth Reduction (%) 14 Days After Application, CIRAR
[6] = CYPES: yellow nutsedge (Cyperus esculentus), 14 days after application, read-out: Visual Growth Reduction (%) 14 Days After Application, CYPES
[7] = DIGSA: crabgrass (Digitaria sanguinalis), 14 days after application, read-out: Visual Growth Reduction (%) 14 Days After Application, DIGSA
[8] = barnyardgrass (Echinochloa crus-galli), 14 Days After Application, read-out: Visual Growth Reduction (%) ECHCG
[9] = common chickweed (Stellaria media), 14 Days After Application, read-out: Visual Growth Reduction (%) STEME
[10] = giant foxtail (Setaria faberi), 14 Days After Application, read-out: Visual Growth Reduction (%) SETFA
[11] = ivy-leaf morning glory (Ipomoea hederacea), 14 Days After Application, read-out: Visual Growth Reduction (%) IPOHE
[12] = johnsongrass (Sorghum vulgare), 14 Days After Application, read-out: Visual Growth Reduction (%) SORVU
[13] = kochia (Bassia scoparia), 14 Days After Application, read-out: Visual Growth Reduction (%) KCHSC
[14] = rice (Oryza sativa), 14 Days After Application, read-out: Visual Growth Reduction (%) ORYSA
[15] = wheat, spring (Triticum aestivum), 14 Days After Application, read-out: Visual Growth Reduction (%) TRZAS
[16] = IPOHE: ivy-leaf morning glory (Ipomoea hederacea), 14 days after application, read-out: Visual Growth Reduction (%) 14 Days After Application, IPOHE
[17] = KCHSC: kochia (Bassia scoparia), 14 days after application, read-out: Visual Growth Reduction (%) 14 Days After Application, KCHSC
[18] = ORYSA: rice (Oryza sativa), 14 days after application, read-out: Visual Growth Reduction (%) 14 Days After Application, ORYSA
[19] = SETFA: giant foxtail (Setaria faberi), 14 days after application, read-out: Visual Growth Reduction (%) 14 Days After Application, SETFA
[20] = SORVU: grain sorghum (Sorghum vulgare), 14 days after application, read-out: Visual Growth Reduction (%) 14 Days After Application, SORVU
[21] = STEME: common chickweed (Stellaria media), 14 days after application, read-out: Visual Growth Reduction (%) 14 Days After Application, STEME
[22] = ECHCG: barnyardgrass (Echinochloa crus-galli), 14 days after application, read-out: Visual Growth Reduction (%) 14 Days After Application, ECHCG
[23] = TRZAS: wheat, spring (Triticum aestivum), 14 days after application, read-out: Visual Growth Reduction (%) 14 Days After Application, TRZAS
[24] = blackgrass (Alopecurus myosuroides), 14 Days After Application, read-out: Visual Growth Reduction (%) ALOMY
[25] = canada thistle (Cirsium arvense), 14 Days After Application, read-out: Visual Growth Reduction (%) CIRAR
[26] = crabgrass (Digitaria sanguinalis), 14 Days After Application, read-out: Visual Growth Reduction (%) DIGSA
[27] = lambsquarters (Chenopodium album), 14 Days After Application, read-out: Visual Growth Reduction (%) CHEAL
[28] = redroot pigweed (Amaranthus retroflexus), 14 Days After Application, read-out: Visual Growth Reduction (%) AMARE
[29] = wild oat (Avena fatua), 14 Days After Application, read-out: Visual Growth Reduction (%) AVEFA
[30] = yellow nutsedge (Cyperus esculentus), 14 Days After Application, read-out: Visual Growth Reduction (%) CYPES

Compound	pest or weed control at 140 g/ha [1]	pest or weed control at 140 g/ha [2]	pest or weed control at 140 g/ha [3]	pest or weed control at 140 g/ha [4]	pest or weed control at 140 g/ha [5]	pest or weed control at 140 g/ha [6]	pest or weed control at 140 g/ha [7]	pest or weed control at 140 g/ha [8]	pest or weed control at 140 g/ha [10]	pest or weed control at 140 g/ha [11]	pest or weed control at 140 g/ha [12]	pest or weed control at 140 g/ha [13]	pest or weed control at 140 g/ha [16]	pest or weed control at 140 g/ha [17]	pest or weed control at 140 g/ha [18]	pest or weed control at 140 g/ha [19]	pest or weed control at 140 g/ha [20]	pest or weed control at 140 g/ha [21]	pest or weed control at 140 g/ha [22]	pest or weed control at 140 g/ha [23]	also measured
COC(=O)c1nc(-c2ccc(C(F)(F)F)cc2C(F)(F)F)ccc1Cl [F17, Methyl 6-(2,4-bis(trifluoromethyl)phenyl)-3-chloropicolinate]	0 to 29%	60 to 74%	0 to 29%	60 to 74%	0 to 29%	0 to 29%	45 to 59%	0 to 29%	0 to 29%	95 to 100%	85 to 94%	0 to 29%	–	–	–	–	–	–	–	–	pest or weed control at 140 g/ha [9]: 0 to 29%; pest or weed control at 140 g/ha [14]: 0 to 29%; pest or weed control at 140 g/ha [15]: 0 to 29%
COC(=O)c1nc(-c2ccc(Cl)c(F)c2Cl)ccc1Cl [F63, Methyl 3-chloro-6-(2,4-dichloro-3-fluorophenyl) picolinate]	0 to 29%	95 to 100%	0 to 29%	95 to 100%	85 to 94%	0 to 29%	85 to 94%	–	–	–	–	–	95 to 100%	60 to 74%	0 to 29%	75 to 84%	85 to 94%	0 to 29%	–	–	–
COC(=O)c1nc(-c2ccc(Cl)c(OC)c2F)c(F)c(Cl)c1Cl [F74, Methyl 3,4-dichloro-6-(4-chloro-2-fluoro-3-methoxyphenyl)-5-fluoropicolinate]	0 to 29%	0 to 29%	0 to 29%	30 to 44%	0 to 29%	0 to 29%	0 to 29%	–	–	–	–	–	0 to 29%	–	0 to 29%	0 to 29%	0 to 29%	0 to 29%	0 to 29%	0 to 29%	–
COC(=O)c1nc(-c2ccc(C(C)O)cc2Cl)ccc1Cl (centres unmarked) [F1, methyl 3-chloro-6-(2-chloro-4-(1-hydroxyethyl)phenyl)picolinate]	0 to 29%	0 to 29%	0 to 29%	0 to 29%	0 to 29%	45 to 59%	0 to 29%	0 to 29%	0 to 29%	0 to 29%	0 to 29%	0 to 29%	–	–	–	–	–	–	–	–	pest or weed control at 140 g/ha [9]: 0 to 29%; pest or weed control at 140 g/ha [14]: 0 to 29%; pest or weed control at 140 g/ha [15]: 0 to 29%
COC(=O)c1nc(-c2ccc(F)cc2F)ccc1Cl [F268, Methyl 3-chloro-6-(2,4-difluorophenyl) picolinate]	–	–	–	–	–	–	–	–	–	–	–	–	0 to 29%	0 to 29%	0 to 29%	0 to 29%	60 to 74%	0 to 29%	0 to 29%	0 to 29%	pest or weed control at 140 g/ha [24]: 0 to 29%; pest or weed control at 140 g/ha [25]: 30 to 44%; pest or weed control at 140 g/ha [26]: 0 to 29%; pest or weed control at 140 g/ha [27]: 60 to 74%; pest or weed control at 140 g/ha [28]: 0 to 29%; pest or weed control at 140 g/ha [29]: 0 to 29%; pest or weed control at 140 g/ha [30]: 0 to 29%
COC(=O)c1nc(-c2ccc(C(F)(F)F)cc2Cl)c(C)cc1Cl [F5]	0 to 29%	0 to 29%	0 to 29%	45 to 59%	0 to 29%	30 to 44%	0 to 29%	0 to 29%	0 to 29%	30 to 44%	30 to 44%	30 to 44%	–	–	–	–	–	–	–	–	pest or weed control at 140 g/ha [14]: 0 to 29%; pest or weed control at 140 g/ha [15]: 0 to 29%
COC(=O)c1nc(-c2ccc(OC(F)F)cc2)c(F)cc1Cl [F165, Methyl 3-chloro-6-(4-(difluoromethoxy)phenyl)-5-fluoropicolinate]	0 to 29%	85 to 94%	0 to 29%	45 to 59%	60 to 74%	0 to 29%	75 to 84%	–	–	–	–	–	75 to 84%	30 to 44%	0 to 29%	75 to 84%	85 to 94%	0 to 29%	60 to 74%	0 to 29%	–
COC(=O)c1nc(-c2cc(Cl)c(C(F)(F)F)cc2C)ccc1Cl [F371, Methyl 3-chloro-6-(5-chloro-2-methyl-4-(trifluoromethyl)phenyl)picolinate]	–	–	–	–	–	–	–	–	–	–	–	–	95 to 100%	0 to 29%	0 to 29%	0 to 29%	75 to 84%	0 to 29%	0 to 29%	0 to 29%	pest or weed control at 140 g/ha [24]: 0 to 29%; pest or weed control at 140 g/ha [25]: 0 to 29%; pest or weed control at 140 g/ha [26]: 45 to 59%; pest or weed control at 140 g/ha [27]: 30 to 44%; pest or weed control at 140 g/ha [28]: 30 to 44%; pest or weed control at 140 g/ha [29]: 0 to 29%; pest or weed control at 140 g/ha [30]: 0 to 29%
COC(=O)c1nc(-c2ccc3[nH]ccc3c2)c(F)cc1Cl [F189, Methyl 3-chloro-5-fluoro-6-(1H-indol-5-yl)picolinate]	0 to 29%	0 to 29%	0 to 29%	30 to 44%	30 to 44%	0 to 29%	0 to 29%	–	–	–	–	–	60 to 74%	0 to 29%	0 to 29%	0 to 29%	0 to 29%	0 to 29%	0 to 29%	0 to 29%	–
